Test results: PMC5887109, “Unravelling the Molecular Determinants of Bee Sensitivity to Neonicotinoid Insecticides” (Current Biology, 2018)

Legend:
[1] = system: transgenic Drosophila expressing honeybee CYP9Q2; test: Insecticide bioassay of transgenic Drosophila expressing CYP9Q2; format: in vivo, Drosophila melanogaster; conditions: Act5C-GAL4 driven; ratio of LC50 values
Experimental: (§1) Fly lines were made homozygous for the transgene integrations. […] LC50 values were calculated as above.

[2] = target: nicotinic acetylcholine receptor (nAChR); test: [3H]imidacloprid displacement, honeybee head membrane preparations; format: binding, A. mellifera; conditions: honeybee head membranes; 95% CI given in text
Experimental: [^3H]imidacloprid (specific activity 1.406 GBq μmol^−1) displacement studies were conducted using membrane preparations isolated from frozen (−80°C) honeybee and bumble bee heads, respectively, following previously published protocols. Briefly, bee heads weighing 10cg were homogenized in 200cml ice-cold 0.1cM potassium phosphate buffer, pH 7.4 containing 95cmM sucrose using a motor-driven Ultra Turrax blender. […] Assays were performed in a 96-well microtiter plate with bonded GF/C filter membrane (Packard UniFilter-96, GF/C) and consisted of 200 μL of homogenate (0.48cmg protein), 25 μL of [^3H]imidacloprid (576cpM) and 25 μL of competing ligand. Ligand concentrations used ranged from 0.001 to 10c000cnM and were tested at least in duplicate per competition assay. The assay was started by the addition of homogenate and incubated for 60cmin at room temperature. Bound [^3H]imidacloprid was quantified by filtration into a second 96-well filter plate (conditioned with ice-cold 100cmM potassium phosphate buffer, pH 7.4 (including BSA 5cg liter−1)) using a commercial cell harvester (Brandel). […] Each well was then loaded with 25 μL of scintillation cocktail (Microszint-O-Filtercount, Packard) and the plate counted in a Topcount scintillation counter (Packard). Non-specific binding was determined using a final concentration of 10cμM unlabelled imidacloprid. […]

A. mellifera = test: Acute contact (topical) insecticide bioassay of honeybees, with or without ABT; conditions: honeybees pretreated with ABT (1-aminobenzotriazole)
Experimental: (§2) Acute contact insecticide assays were performed on female A. mellifera following standard methods OECD 2013 [30]. Bioassays of B. terrestris were based on the OECD guidelines developed for honeybees but with bees assayed in individual Nicot cages. Bees were starved of sucrose solution for up to 2 hr to encourage feeding during the experiment. […] Controls were fed a solution of sucrose containing a concentration of acetone matching that of the highest treatment concentration. After 4-6 hr the syringes were assessed to see if bees had consumed the insecticide-sucrose solution. Those that had not consumed all of the solution were excluded from the experiment. Mortality was assessed 48 hr after feeding and lethal concentrations (LC50 values) were calculated by probit analysis using Genstat version 16 (VSN International). For synergist bioassays, B. terrestris or A. mellifera workers were first treated with 20 μg of piperonyl butoxide or 1 μg of aminobenzotriazole applied to the dorsal thorax. Synergist bioassays included an additional control group treated only with the synergist. 1 hr after synergist application, bees were then treated with the appropriate insecticide dosage as above.

[3] = system: transgenic Drosophila expressing honeybee CYP9Q3; test: Insecticide bioassay of transgenic Drosophila expressing CYP9Q3; format: in vivo, Drosophila melanogaster; conditions: Act5C-GAL4 driven; ratio of LC50 values
Experimental: as §1

[4] = system: bumble bees (Bombus terrestris); test: Bumble bee contact and oral bioassays taken together, EPA rating; conditions: depends on route of exposure
Experimental: as §2

[5] = system: transgenic Drosophila expressing honeybee CYP9Q1; test: Insecticide bioassay of transgenic Drosophila expressing CYP9Q1; format: in vivo, Drosophila melanogaster; conditions: Act5C-GAL4 driven; ratio of LC50 values
Experimental: as §1

[6] = system: transgenic Drosophila expressing B. terrestris CYP9Q5; test: Insecticide bioassay of transgenic Drosophila expressing CYP9Q5; format: in vivo, Drosophila melanogaster; conditions: Act5C-GAL4 driven; ratio of LC50 values
Experimental: as §1

CYP6AS5 = test: Metabolism by recombinant CYP6AS5/CPR microsomes, LC-MS/MS; conditions: thiacloprid hydroxylation
Description: All bee P450 (see Table S3 for accession numbers) and house fly NADPH-dependent cytochrome P450 reductase (CPR) (GenBank accession number Q07994) genes were obtained by gene synthesis (Geneart, CA, USA) and inserted into the pDEST8 expression vector (Invitrogen). Codon optimization of all bee genes was used to optimize expression in lepidopteran cell lines. The PFastbac1 vector with no inserted DNA was used to produce a control virus. The recombinant baculovirus DNA was constructed and transfected into Trichoplusia ni (High five cells, Thermo Fisher) using the Bac-to-Bac baculovirus expression system (Invitrogen) according to the manufacturer’s instructions. The titer of the recombinant virus was determined following protocols of the supplier. […] The protein content of samples was determined using Bradford reagent (Sigma) and bovine serum albumin (BSA) as a reference.
(§3) The total assay volume was 200 μL using three replicates for each data point. […] The assay was stopped by the addition of ice-cold acetonitrile (to 80% final concentration), centrifuged for 10 min at 3000 g and the supernatant subsequently analyzed by tandem mass spectrometry as described previously. […] Substrate turnover from two independent reactions were plotted versus controls and Michaelis-Menten kinetics determined using GraphPad Prism version 7 (GraphPad Software, CA, USA).

CYP9Q5 = test: Metabolism by recombinant CYP9Q5/CPR microsomes, LC-MS/MS
Description: (§4) All bee P450 (see Table S3 for accession numbers) and house fly NADPH-dependent cytochrome P450 reductase (CPR) (GenBank accession number Q07994) genes were obtained by gene synthesis (Geneart, CA, USA) and inserted into the pDEST8 expression vector (Invitrogen). Codon optimization of all bee genes was used to optimize expression in lepidopteran cell lines. The PFastbac1 vector with no inserted DNA was used to produce a control virus. The recombinant baculovirus DNA was constructed and transfected into Trichoplusia ni (High five cells, Thermo Fisher) using the Bac-to-Bac baculovirus expression system (Invitrogen) according to the manufacturer’s instructions. The titer of the recombinant virus was determined following protocols of the supplier. High Five cells grown to a density of 2 × 10^6 cells ml^-1 were co-infected with recombinant baculoviruses containing each bee P450 and CPR with a range of MOI (multiplicity of infection) ratios to identify the optimal conditions. Control cells were co-infected with the baculovirus containing vector with no insert (ctrl-virus) and the recombinant baculovirus expressing CPR using the same MOI ratios. Ferric citrate and δ-aminolevulinic acid hydrochloride were added to a final concentration of 0.1 mM at the time of infection and 24 h after infection to compensate the low levels of endogenous heme in the insect cells. After 48 h, cells were harvested, washed with PBS, and microsomes of the membrane fraction prepared according to standard procedures and stored at −80°C [31]. Briefly, pellets were homogenized for 30 s in 0.1M Na/K-phosphate buffer, pH 7.4 containing 1mM EDTA and DTT and 200mM sucrose using a Fastprep (MP Biomedicals), filtered through miracloth and centrifuging for 10 min at 680 g at 4°C. The supernatant was then centrifuged for 1 h at 100,000 g at 4°C, with the pellet subsequently resuspended in 0.1M Na/K-phosphate buffer, pH 7.6 containing 1mM EDTA and DTT and 10% glycerol using a Dounce tissue grinder. P450 expression and functionality was estimated by measuring CO-difference spectra in reduced samples using a Specord 200 Plus Spectrophotometer (Analytik Jena) and scanning from 500 nm to 400 nm. The protein content of samples was determined using Bradford reagent (Sigma) and bovine serum albumin (BSA) as a reference.
as §3

CYP9Q4 = CYP9Q4 (Bombus terrestris, UniProt A0A9B0BBT5); test: Metabolism by recombinant CYP9Q4/CPR microsomes, LC-MS/MS
Chain of CYP9Q4 (Q07994 whole entry): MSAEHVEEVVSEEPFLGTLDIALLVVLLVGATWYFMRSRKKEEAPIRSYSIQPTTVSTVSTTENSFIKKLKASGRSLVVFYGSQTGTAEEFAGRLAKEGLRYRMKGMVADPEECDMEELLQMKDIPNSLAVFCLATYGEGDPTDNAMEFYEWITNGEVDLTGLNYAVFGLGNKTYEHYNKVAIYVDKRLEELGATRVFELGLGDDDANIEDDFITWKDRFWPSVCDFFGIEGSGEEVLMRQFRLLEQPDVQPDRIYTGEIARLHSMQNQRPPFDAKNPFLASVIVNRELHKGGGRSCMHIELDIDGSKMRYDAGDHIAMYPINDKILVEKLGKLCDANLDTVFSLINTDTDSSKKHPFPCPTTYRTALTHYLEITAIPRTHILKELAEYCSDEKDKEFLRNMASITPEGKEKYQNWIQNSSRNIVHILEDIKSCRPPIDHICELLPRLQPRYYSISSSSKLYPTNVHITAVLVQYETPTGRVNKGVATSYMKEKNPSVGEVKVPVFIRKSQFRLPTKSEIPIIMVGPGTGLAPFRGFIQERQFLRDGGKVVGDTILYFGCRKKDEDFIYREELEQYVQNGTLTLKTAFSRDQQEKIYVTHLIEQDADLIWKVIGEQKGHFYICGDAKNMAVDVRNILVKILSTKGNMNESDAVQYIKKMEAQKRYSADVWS
Chain of CYP9Q4 (A0A9B0BBT5 entry or part of it): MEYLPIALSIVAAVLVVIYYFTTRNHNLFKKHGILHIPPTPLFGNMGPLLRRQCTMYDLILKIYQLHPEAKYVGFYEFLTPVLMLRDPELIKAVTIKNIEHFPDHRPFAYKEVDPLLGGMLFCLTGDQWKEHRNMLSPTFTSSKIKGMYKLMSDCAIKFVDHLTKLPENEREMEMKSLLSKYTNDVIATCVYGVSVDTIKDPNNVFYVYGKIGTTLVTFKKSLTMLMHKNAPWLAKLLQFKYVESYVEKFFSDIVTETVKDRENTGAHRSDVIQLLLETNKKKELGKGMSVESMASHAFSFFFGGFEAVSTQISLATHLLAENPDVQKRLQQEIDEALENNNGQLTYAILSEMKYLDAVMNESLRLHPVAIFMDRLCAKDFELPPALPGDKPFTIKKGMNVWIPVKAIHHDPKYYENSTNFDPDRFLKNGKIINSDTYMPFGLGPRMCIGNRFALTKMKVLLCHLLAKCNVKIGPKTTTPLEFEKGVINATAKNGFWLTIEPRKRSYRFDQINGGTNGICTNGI
Description: as §4, §3

[7] = apparent value, mean ± SD (n=3), decimal commas
[8] = hydroxylation (thiacloprid) or N-desmethylation (acetamiprid)

| Compound | resistance compared to control flies without the transgene [1] | IC50 [2] [nM] | fold more sensitive after pretreatment with ABT (A. mellifera) [fold] | resistance compared to control flies without the transgene [3] | EPA toxicity category [4] | resistance compared to control flies without the transgene [5] | resistance compared to control flies without the transgene [6] | metabolism by the recombinant P450 (in words) (CYP6AS5) | Km at 45 min (CYP9Q5; Bombus terrestris) [µM] | Vmax, thiacloprid hydroxylation (CYP9Q5; [7]) | metabolism by the recombinant P450 (in words) (CYP9Q5; [8]) | Km at 45 min (CYP9Q4; Bombus terrestris) [µM] | Vmax, thiacloprid hydroxylation (CYP9Q4; [7]) | metabolism by the recombinant P450 (in words) (CYP9Q4; [8]) |
| --- | --- | --- | --- | --- | --- | --- | --- | --- | --- | --- | --- | --- | --- | --- |
| O=[N+]([O-])NC1=NCCN1Cc1ccc(Cl)nc1 [imidacloprid] | no significant differences in sensitivity | 1.2 | 2.7 | no significant differences in sensitivity | highly toxic | no significant differences in sensitivity | no significant differences | – | – | – | – | – | – | – |
| N#C/N=C1\SCCN1Cc1ccc(Cl)nc1 [thiacloprid] | – | 1.1 | – | – | slightly toxic” or “practically non-toxic | – | – | weak activity | 30 | 4,29±0,71 pmol min-1 mg-1 | metabolize thiacloprid to its 5-hydroxy form | 11.8 | 18,94±0,64 pmol min-1 mg-1 | metabolize thiacloprid to its 5-hydroxy form |
